Some test systems named below: KM12 colon; MCF7 breast; NCI-H460 lung; RPMI-8226 leukemia; SF-295 CNS; SN12C renal; SNB-19 CNS; T-47D breast; UACC-257 melanoma; UACC-62 melanoma.
What all share (assay): NCI anticancer screen, dose series, 48 h

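These data come from cells grown in 96-well plates and exposed to compound for 48 hours at five concentrations. The concentration for 50% growth inhibition is given as GI50. TGI denotes the concentration required for complete inhibition of growth.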

This is an account of results in PubChem BioAssay (NCI).

For the compound `C=C(C)COc1cc(NC(=S)OC(C)C)ccc1Cl`, the TGI stood at 65.7 µM with KM12 colon; 29.3 µM with MCF7 breast; 30.8 µM in the test with NCI-H460 lung; 54.1 µM in the test on RPMI-8226 leukemia; 29.3 µM in the test on SF-295 CNS; 30.6 µM in the test with SN12C renal. In addition, the TGI worked out at 33.4 µM in the test with SNB-19 CNS, 26.8 µM in the test with T-47D breast, 31.8 µM with UACC-257 melanoma and 32.7 µM in the test with UACC-62 melanoma.
`Cc1cc(N=Cc2c(CO)cnc(C)c2O)c(N=Cc2c(CO)cnc(C)c2O)cc1C`: the TGI in the test on KM12 colon, in the test on MCF7 breast, with NCI-H460 lung, in the test on RPMI-8226 leukemia, with SF-295 CNS and with SN12C renal was more than 100 µM in each case. Also, the TGI with SNB-19 CNS, in the test with T-47D breast, with UACC-257 melanoma and in the test with UACC-62 melanoma was more than 100 µM throughout. Further, the GI50 with RPMI-8226 leukemia was 26.1 µM.
For `Nc1ccc(C2SCC(=O)N2NS(=O)(=O)c2cccc(C(=O)O)c2)cc1` (stereo unspecified), the TGI in the test on KM12 colon, in the test with MCF7 breast, in the test with NCI-H460 lung, with RPMI-8226 leukemia, in the test with SF-295 CNS and in the test with SN12C renal was more than 100 µM in each case. Besides, the TGI in the test with SNB-19 CNS, in the test with T-47D breast, in the test with UACC-257 melanoma and in the test on UACC-62 melanoma was more than 100 µM in each case.
Turning to `Nc1ncnc2c1ccn2-c1cccc(NC(=O)c2ccc(N3CCOCC3)c(C(F)(F)F)c2)c1`, the GI50 with KM12 colon is 2.69 µM; in the test with MCF7 breast it was 3.44 µM; with NCI-H460 lung, 2.92 µM; with RPMI-8226 leukemia, 1.39 µM; in the test with SF-295 CNS, 2.44 µM; with SN12C renal, 2.9 µM. The GI50 with SNB-19 CNS is 3.96 µM; in the test on T-47D breast, 2.66 µM; in the test with UACC-257 melanoma, 4.99 µM; in the test with UACC-62 melanoma, 1.99 µM. For the same compound, the TGI was determined as 10.4 µM in the test on KM12 colon; 14.2 µM in the test with MCF7 breast; 9.33 µM in the test with NCI-H460 lung; 4.04 µM in the test on RPMI-8226 leukemia; 7.31 µM with SF-295 CNS; 9.64 µM with SN12C renal. For the same compound, the TGI with SNB-19 CNS came to 13 µM; in the test with T-47D breast it was 7.92 µM; with UACC-257 melanoma it was 22.1 µM; in the test on UACC-62 melanoma, 5.78 µM.
For `O=C(NC(OCc1ccccc1)(C(F)(F)F)C(F)(F)F)OCc1ccccc1`, the TGI amounted to 30.2 µM in the test with KM12 colon; 30.1 µM in the test on MCF7 breast; 29.6 µM in the test on NCI-H460 lung; 41.1 µM in the test with RPMI-8226 leukemia; 31.4 µM in the test with SF-295 CNS; 29.4 µM in the test with SN12C renal. The TGI in the test with SNB-19 CNS was 29.2 µM; in the test with T-47D breast, 29.4 µM; in the test with UACC-257 melanoma, 27.3 µM; in the test with UACC-62 melanoma, 27 µM.
Take `COc1ccc2nc3cc(Cl)ccc3c(NCCCCCC(=O)NC(COc3ccc4ccc5cccnc5c4n3)COc3ccc4ccc5cccnc5c4n3)c2c1`: the TGI in the test on KM12 colon was 85.5 µM; in the test with MCF7 breast, 15.1 µM; in the test with NCI-H460 lung, 19.1 µM; with RPMI-8226 leukemia, 17.3 µM; with SF-295 CNS, more than 100 µM; in the test on SN12C renal it was 31.6 µM. Besides, the TGI was more than 100 µM in the test with SNB-19 CNS, 40.1 µM with T-47D breast, 42.8 µM with UACC-257 melanoma and 56.4 µM with UACC-62 melanoma.
Take `O=C(O)c1ccc(Nc2cnc3cc(C(F)(F)F)ccc3n2)cc1`: the TGI in the test with KM12 colon, in the test with MCF7 breast, in the test on NCI-H460 lung, in the test with RPMI-8226 leukemia, in the test with SF-295 CNS and in the test on SN12C renal was more than 100 µM in each case. For the same compound, the TGI with SNB-19 CNS is more than 100 µM; in the test on T-47D breast, 53.8 µM; in the test with UACC-257 melanoma, more than 100 µM; in the test on UACC-62 melanoma it was 53.6 µM.
On to `CCCCCCCCCCCCCCCC(=O)OC1C(O)C(O)C(O)C(O)C12CO2` (stereo unspecified), for which the TGI with KM12 colon was more than 100 µM; in the test on MCF7 breast it was more than 100 µM; with NCI-H460 lung, more than 100 µM; in the test with RPMI-8226 leukemia, more than 100 µM; in the test with SF-295 CNS it was more than 100 µM; in the test with SN12C renal it was 34.5 µM. For the same compound, the TGI in the test on SNB-19 CNS, with T-47D breast, in the test on UACC-257 melanoma and in the test with UACC-62 melanoma was more than 100 µM each time.
Take `NS(=O)(=O)c1ccc(NC(=O)c2ccc3nc4ccccc4c(Nc4ccc(S(N)(=O)=O)cc4)c3c2)cc1`: the TGI in the test with KM12 colon, in the test on MCF7 breast, with NCI-H460 lung, in the test on RPMI-8226 leukemia, in the test on SF-295 CNS and in the test on SN12C renal was more than 100 µM each time. Moreover, the TGI in the test on SNB-19 CNS, in the test on T-47D breast, in the test on UACC-257 melanoma and in the test with UACC-62 melanoma was more than 100 µM in each case.
In the case of `CCCCCCCCCCCCc1ccsc1-c1ccc(-c2ccc(-c3sccc3CCCCCCCCCCCC)s2)s1`, the TGI with KM12 colon, in the test on MCF7 breast, in the test with NCI-H460 lung, in the test on RPMI-8226 leukemia, in the test with SF-295 CNS and with SN12C renal was more than 100 µM in each case. Besides, the TGI in the test on SNB-19 CNS, in the test on T-47D breast, in the test on UACC-257 melanoma and in the test with UACC-62 melanoma was more than 100 µM each time.
Turning to `C#CCn1c(=O)ccn(/C(=C/C(=O)OCC)C(=O)OCC)c1=O`, the TGI in the test on KM12 colon is 33.8 µM; with MCF7 breast it was 13 µM; in the test on NCI-H460 lung, 10.3 µM; in the test with RPMI-8226 leukemia, more than 24.6 µM; in the test on SF-295 CNS it was more than 60.5 µM; in the test on SN12C renal it was 29.5 µM. Moreover, the TGI was determined as 40.7 µM in the test with SNB-19 CNS, 14.1 µM in the test on T-47D breast, 29.6 µM in the test on UACC-257 melanoma and 27.8 µM with UACC-62 melanoma.
